Test results as given in PubChem BioAssay AID2060886 (Molecular Pharmacology Branch, DTP, NCI, 2025).

System: 653999-131-R-J2-PDC complex spheroids, growth inhibition
Assay: Anticancer human tumor 653999-131-R-J2-PDC patient-derived lung adenocarcinoma cell line growth inhibition [RAS]
Settings: for IC50: curve of first compound; for viability, T/C: stronger effect = lower value
Summary of the method: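 Agents were tested in combination matrices in half-log decrements from a top concentration at or near clinical Cmax (10 microM if undetermined). Targets were multi-cell spheroids of tumour lines plus HUVEC and MSC stromal cells.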
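Note: spheroids exposed to the agents for seven days before the readout.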

IC50 (second compound 0.000949 µM): 21.8 nM
IC50 (second compound 0.003 µM): 20.1 nM
IC50 (second compound 0.00949 µM): 20.1 nM
IC50 (second compound 0.03 µM): 22.1 nM
IC50 (second compound 0.0949 µM): 24.6 nM
IC50 (second compound 0.3 µM): 17.7 nM
Compound: CC(C)n1nc(-c2ccc3oc(N)nc3c2)c2c(N)ncnc21 + CCn1c(-c2cccnc2C(C)OC)c2c3cc(ccc31)N1CCOC(CC(NC(=O)C(C(C)C)N(C)C(=O)C3(F)CCN(C(=O)C#CC(C)(C)N(C)C)CC3)C(=O)N3CCCC(N3)C(=O)OCC(C)(C)C2)C1
viability, T/C (second compound 0.000949 µM, first compound 0.000316 µM): 85.9%
viability, T/C (second compound 0.000949 µM, first compound 0.001 µM): 95.4%
viability, T/C (second compound 0.000949 µM, first compound 0.00316 µM): 82.9%
viability, T/C (second compound 0.000949 µM, first compound 0.01 µM): 66%
viability, T/C (second compound 0.000949 µM, first compound 0.0316 µM): 42.9%
viability, T/C (second compound 0.000949 µM, first compound 0.1 µM): 28.4%
viability, T/C (second compound 0.003 µM, first compound 0.000316 µM): 95.8%
viability, T/C (second compound 0.003 µM, first compound 0.001 µM): 104%
viability, T/C (second compound 0.003 µM, first compound 0.00316 µM): 87.3%
viability, T/C (second compound 0.003 µM, first compound 0.01 µM): 62.7%
viability, T/C (second compound 0.003 µM, first compound 0.0316 µM): 42.9%
viability, T/C (second compound 0.003 µM, first compound 0.1 µM): 34%
viability, T/C (second compound 0.00949 µM, first compound 0.000316 µM): 107%
viability, T/C (second compound 0.00949 µM, first compound 0.001 µM): 98.8%
viability, T/C (second compound 0.00949 µM, first compound 0.00316 µM): 94.5%
viability, T/C (second compound 0.00949 µM, first compound 0.01 µM): 63.9%
viability, T/C (second compound 0.00949 µM, first compound 0.0316 µM): 41.1%
viability, T/C (second compound 0.00949 µM, first compound 0.1 µM): 32.9%
viability, T/C (second compound 0.03 µM, first compound 0.000316 µM): 100%
viability, T/C (second compound 0.03 µM, first compound 0.001 µM): 93.8%
viability, T/C (second compound 0.03 µM, first compound 0.00316 µM): 76.9%
viability, T/C (second compound 0.03 µM, first compound 0.01 µM): 59.3%
viability, T/C (second compound 0.03 µM, first compound 0.0316 µM): 47.4%
viability, T/C (second compound 0.03 µM, first compound 0.1 µM): 29.1%
viability, T/C (second compound 0.0949 µM, first compound 0.000316 µM): 97.7%
viability, T/C (second compound 0.0949 µM, first compound 0.001 µM): 95.8%
viability, T/C (second compound 0.0949 µM, first compound 0.00316 µM): 79.4%
viability, T/C (second compound 0.0949 µM, first compound 0.01 µM): 68.1%
viability, T/C (second compound 0.0949 µM, first compound 0.0316 µM): 44%
viability, T/C (second compound 0.0949 µM, first compound 0.1 µM): 31.8%
viability, T/C (second compound 0.3 µM, first compound 0.000316 µM): 92.4%
viability, T/C (second compound 0.3 µM, first compound 0.001 µM): 93.8%
viability, T/C (second compound 0.3 µM, first compound 0.00316 µM): 81.7%
viability, T/C (second compound 0.3 µM, first compound 0.01 µM): 54.6%
viability, T/C (second compound 0.3 µM, first compound 0.0316 µM): 45.4%
viability, T/C (second compound 0.3 µM, first compound 0.1 µM): 44.9%
